Data reported in PubChem BioAssay (NCI).
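Each compound was tested at five concentrations against cells in 96-well plates for 48 hours. Definition used: TGI = concentration required for complete inhibition of growth.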

Legend:
Experiment in all cases: NCI anticancer screen, dose series, 48 h
[1] = tested on: MDA-MB-231 breast
[2] = tested on: LOX IMVI melanoma
[3] = tested on: CCRF-CEM leukemia
[4] = tested on: HT29 colon
[5] = tested on: NCI-H460 lung
[6] = tested on: MDA-N
[7] = tested on: A549 NSCLC
[8] = tested on: SF-295 CNS
[9] = tested on: SN12C renal
[10] = tested on: A498 renal
[11] = tested on: NCI/ADR-RES ovarian
[12] = tested on: ACHN renal
[13] = tested on: HOP-62 NSCLC
[14] = tested on: M14 melanoma
[15] = tested on: HCC-2998 colon
[16] = tested on: PC-3 prostate
[17] = tested on: HL-60(TB) leukemia
[18] = tested on: CAKI-1 renal
[19] = tested on: UACC-257 melanoma
[20] = tested on: KM12 colon
[21] = tested on: OVCAR-5 ovarian
[22] = tested on: SK-MEL-5 melanoma
[23] = tested on: BT-549 breast
[24] = tested on: SNB-19 CNS
[25] = tested on: NCI-H23 lung
[26] = tested on: SF-539 CNS
[27] = tested on: MALME-3M melanoma
[28] = tested on: UO-31 renal
[29] = tested on: OVCAR-3 ovarian
[30] = tested on: RPMI-8226 leukemia
[31] = tested on: SR leukemia
[32] = tested on: EKVX NSCLC
[33] = tested on: HCT-116 colon
[34] = tested on: HCT-15 colon
[35] = tested on: SK-MEL-28 melanoma
[36] = tested on: HS 578T breast
[37] = tested on: UACC-62 melanoma
[38] = tested on: HOP-92 NSCLC
[39] = tested on: NCI-H226 lung
[40] = tested on: U251 CNS
[41] = tested on: SK-OV-3 ovarian
[42] = tested on: TK-10 renal
[43] = tested on: COLO 205 colon
[44] = tested on: T-47D breast
[45] = tested on: OVCAR-8 ovarian
[46] = tested on: DU-145 prostate
[47] = tested on: MOLT-4 leukemia
[48] = tested on: MCF7 breast
[49] = tested on: OVCAR-4 ovarian
[50] = tested on: MDA-MB-435
[51] = tested on: K-562 leukemia
[52] = tested on: 786-0 renal
[53] = tested on: SW-620 colon
[54] = tested on: SNB-75 CNS
[55] = tested on: IGROV1 ovarian
[56] = tested on: SK-MEL-2 melanoma
[57] = tested on: RXF 393 renal
[58] = tested on: NCI-H522 lung
[59] = tested on: SF-268 CNS

Measured: TGI

COC(=O)C#Cc1cccc(OC)c1OC
35.4 µM: [47]
48.2 µM: [15]
46.4 µM: [26]
55.6 µM: [48]
44.8 µM: [31]
> 100 µM: [1] | [2] | [5] | [6] | [7] | [8] | [9] | [10] | [12] | [13] | [14] | [16] | [17] | [19] | [20] | [22] | [23] | [24] | [25] | [27] | [29] | [30] | [33] | [34] | [35] | [36] | [37] | [39] | [40] | [41] | [42] | [44] | [45] | [46] | [50] | [52] | [53]
54.4 µM: [32]
65.7 µM: [43]
68.3 µM: [18]
67.9 µM: [3]
51.3 µM: [21]
66.1 µM: [38]
37.9 µM: [28]
99 µM: [11]
36.2 µM: [49]
55.1 µM: [51]
79.2 µM: [4]

Cc1ccc(S(=O)(=O)N(CCN2C(=O)c3ccccc3C2=O)c2cc3c4c(c2)Oc2cc(N(CCN5C(=O)c6ccccc6C5=O)S(=O)(=O)c5ccc(C)cc5)cc5c2C4(C)c2c(cc(N(CCN4C(=O)c6ccccc6C4=O)S(=O)(=O)c4ccc(C)cc4)cc2O5)O3)cc1
45.8 µM: [1]
> 100 µM: [2] | [3] | [4] | [5] | [6] | [7] | [8] | [9] | [11] | [12] | [13] | [14] | [54] | [16] | [55] | [17] | [56] | [18] | [19] | [20] | [21] | [22] | [23] | [24] | [57] | [26] | [28] | [29] | [30] | [31] | [32] | [33] | [34] | [35] | [36] | [37] | [39] | [58] | [40] | [41] | [42] | [43] | [59] | [44] | [45] | [46] | [47] | [48] | [49] | [50] | [51] | [52] | [53]

COC(=O)CCc1ccc2c(c1)[C@H](C(=O)OC)[C@@H](c1ccc(O)cc1)O2
> 100 µM: [1] | [2] | [3] | [4] | [5] | [6] | [7] | [8] | [9] | [10] | [11] | [12] | [13] | [14] | [15] | [16] | [55] | [17] | [56] | [18] | [19] | [20] | [21] | [22] | [23] | [24] | [25] | [27] | [28] | [29] | [30] | [31] | [32] | [34] | [35] | [36] | [37] | [38] | [58] | [40] | [41] | [42] | [43] | [59] | [44] | [45] | [46] | [47] | [48] | [49] | [50] | [51] | [53]
47.1 µM: [33]
67.1 µM: [39]
65.9 µM: [26]
